Drawing on publication PMC7823583, “Discovery of Potent Dual EGFR/HER2 Inhibitors Based on Thiophene Scaffold Targeting H1299 Lung Cancer Cell Line” (Pharmaceuticals, 2020), this text covers IC50 for twelve compounds.

The target in the first assay is HER2 (Homo sapiens, UniProt P04626). Kind of assay: HER2 kinase inhibitory assay (Kinase-Glo Plus luminescence kinase assay). It counts as biochemical. Conditions: read-out: IC50 against HER2.
HER2, sequence (P04626 23-1255): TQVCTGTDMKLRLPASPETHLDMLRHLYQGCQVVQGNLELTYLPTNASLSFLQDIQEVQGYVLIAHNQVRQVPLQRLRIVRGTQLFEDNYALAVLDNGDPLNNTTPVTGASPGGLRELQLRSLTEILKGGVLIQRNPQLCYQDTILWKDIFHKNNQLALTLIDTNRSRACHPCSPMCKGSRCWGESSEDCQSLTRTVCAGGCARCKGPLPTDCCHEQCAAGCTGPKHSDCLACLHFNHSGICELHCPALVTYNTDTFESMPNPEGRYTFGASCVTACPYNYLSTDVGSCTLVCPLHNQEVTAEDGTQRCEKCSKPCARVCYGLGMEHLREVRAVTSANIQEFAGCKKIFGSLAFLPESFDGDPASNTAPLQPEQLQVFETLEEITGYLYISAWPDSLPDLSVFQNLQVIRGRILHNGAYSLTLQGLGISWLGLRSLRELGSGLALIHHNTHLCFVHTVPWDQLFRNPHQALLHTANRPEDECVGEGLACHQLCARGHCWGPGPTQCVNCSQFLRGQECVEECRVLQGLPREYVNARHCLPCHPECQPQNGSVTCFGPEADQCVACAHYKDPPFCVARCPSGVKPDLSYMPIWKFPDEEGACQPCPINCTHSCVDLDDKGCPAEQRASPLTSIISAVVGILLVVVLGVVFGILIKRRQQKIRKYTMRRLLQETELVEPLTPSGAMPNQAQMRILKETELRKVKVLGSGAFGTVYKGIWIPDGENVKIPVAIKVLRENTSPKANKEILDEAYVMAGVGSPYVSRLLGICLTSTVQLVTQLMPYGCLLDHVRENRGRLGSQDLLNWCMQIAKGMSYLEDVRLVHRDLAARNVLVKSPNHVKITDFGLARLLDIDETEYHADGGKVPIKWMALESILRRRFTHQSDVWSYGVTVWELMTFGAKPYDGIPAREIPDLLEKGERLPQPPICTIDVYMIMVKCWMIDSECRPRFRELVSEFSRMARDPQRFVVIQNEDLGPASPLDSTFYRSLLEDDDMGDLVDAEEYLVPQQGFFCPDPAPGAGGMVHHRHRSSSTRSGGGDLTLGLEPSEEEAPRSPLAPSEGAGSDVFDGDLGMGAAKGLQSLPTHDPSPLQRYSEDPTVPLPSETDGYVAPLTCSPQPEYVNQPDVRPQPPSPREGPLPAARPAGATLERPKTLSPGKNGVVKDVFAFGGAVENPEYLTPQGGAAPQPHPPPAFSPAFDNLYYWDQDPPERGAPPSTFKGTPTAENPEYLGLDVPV
In general, IC50 refers to the concentration at which inhibition is half-maximal. Take `N#Cc1c(NC(=O)CNc2n[nH]c3ncccc23)sc2c1CCCC2` [Compound 21a, 2-(1H-Pyrazolo[3,4-b]pyridin-3-ylamino)-N-(3-cyano4,5,6,7-tetrahydrobenzo[b]thiophen-2-yl)acetamide]: the IC50 was 0.14 nM.

The subject of another assay is NSCLC cell line H1299. As to the kind of experiment: In vitro cytotoxic activity against H1299, sulfo-rhodamine B (SRB) assay. The conditions noted are these: Homo sapiens, NCI-H1299, 48 h, read-out: IC50 against H1299.
Description: The potential cytotoxic activity of the target compounds on H1299 lung cancer cell line was tested using sulfo-rhodamine B (SRB) assay according to Skehan method [20]. Single cells were plated in 96-multiwell plates for 24 h before treatment with the compounds. A single concentration of the tested compounds was added to the cell monolayer. Monolayer cell was incubated with the compounds for 48 h at 37 °C and in atmosphere of 5% CO2. After 48 h, cell was fixed, washed and stained with Sulforhodamine-B stain. Acetic acid was then used to wash excess stain and attached stain was recovered with Tris ethylenediaminetetraacetic acid (EDTA) buffer. Color intensity was measured in an enzyme-linked immunosorbent assay (ELISA).
For `Nc1cccc(Nc2nnnc3sc4c(c23)CCC4)c1` [Compound 13a, 3-(5,6-dihydro-7H-cyclopenta[4:5]thieno[2,3-d][1,2,3]triazin-4-ylamino)benzene-1,3-diamine], the IC50 is 28.8 nM.
Consider `Nc1cccc(Nc2nnnc3sc4c(c23)CCCC4)c1` [Compound 13b, 3-(5,6,7,8-Tetrahydro-7H-cyclohexa[4:5]thieno[2,3-d][1,2,3]triazin-4ylamino)benzene-1,3-diamine], for which the half-maximal inhibitory concentration (IC50) came to 25 nM.
On to `O=[N+]([O-])c1cccc(C=Nc2cccc(Nc3nnnc4sc5c(c34)CCCC5)c2)c1` [Compound 17b, 3-(5,6,7,8-Tetrahydro-7H-cyclohexa[4:5]thieno[2,3-d][1,2,3]triazin-4-ylamino)-N-(3-nitrobenzylidene)benzene-1,3-diamine], for which the IC50 turned out to be 38.1 nM.
The same measure, in the same setting: the result for `Cc1cc(C)c2c(NCC(=O)Nc3sc4c(c3C#N)CCCC4)n[nH]c2n1` [Compound 21b, N-(3-Cyano-4,5,6,7-tetrahydrobenzo[b]thiophen-2-yl)-2-(4,6-dimethyl-1H-pyrazolo[3,4-b]pyridin-3-ylamino)acetamide] reads 13.7 nM.
Still for that read-out and setting: the result for `N#Cc1c(NC(=O)CNc2n[nH]c3ncccc23)sc2c1CCCC2` [Compound 21a, 2-(1H-Pyrazolo[3,4-b]pyridin-3-ylamino)-N-(3-cyano4,5,6,7-tetrahydrobenzo[b]thiophen-2-yl)acetamide] reads 12.5 nM; that for `Oc1ccccc1C=Nc1cccc(Nc2nnnc3sc4c(c23)CCCC4)c1` [Compound 15b, 3-(5,6,7,8-Tetrahydro-7H-cyclohexa[4:5]thieno[2,3-d][1,2,3]triazin-4-ylamino)-N-(2-hydroxybenzylidene)benzene-1,3-diamine], 34 nM; that for `Oc1ccccc1C=Nc1cccc(Nc2nnnc3sc4c(c23)CCC4)c1` [Compound 15a, 3-(5,6-Dihydro-7H-cyclopenta[4:5]thieno[2,3-d][1,2,3]triazin-4-ylamino)-N-(2-hydroxybenzylidene)benzene-1,3-diamine], 32.8 nM.
Same read-out and setting: the result for `COc1ccc(C=NNCC(=O)Nc2sc3c(c2C#N)CCCC3)cc1` [Compound 25b, N-(3-Cyano-4,5,6,7-tetrahydrobenzo[b]thiophen-2-yl)-2-(2-(4-methoxybenzylidene)hydrazinyl)acetamide] reads 18.5 nM; that for `C(=Nc1cccc(Nc2nnnc3sc4c(c23)CCC4)c1)c1ccccc1` [Compound 14a, 3-(5,6-Dihydro-7H-cyclopenta[4:5]thieno[2,3-d][1,2,3]triazin-4-ylamino)-N-benzylidenebenzene-1,3-diamine], 25.7 nM; that for `N#Cc1c(NC(=O)CNc2onc3ncccc23)sc2c1CCCC2` [Compound 23, N-(3-Cyano-4,5,6,7-tetrahydrobenzo[b]thiophen-2-yl)-2-(isoxazolo[3,4-b]pyridin-3-ylamino)acetamide], 18.4 nM.
Turning to `N#Cc1c(NC(=O)CNN=Cc2cccc([N+](=O)[O-])c2)sc2c1CCCC2` [Compound 25a, N-(3-Cyano-4,5,6,7-tetrahydrobenzo[b]thiophen-2-yl)-2-(2-(3-nitrobenzylidene)hydrazinyl)acetamide], the half-maximal inhibitory concentration (IC50) is 18.5 nM.

The target of a further assay is EGFR (Homo sapiens, UniProt P00533).
EGFR, sequence (P00533 25-1210): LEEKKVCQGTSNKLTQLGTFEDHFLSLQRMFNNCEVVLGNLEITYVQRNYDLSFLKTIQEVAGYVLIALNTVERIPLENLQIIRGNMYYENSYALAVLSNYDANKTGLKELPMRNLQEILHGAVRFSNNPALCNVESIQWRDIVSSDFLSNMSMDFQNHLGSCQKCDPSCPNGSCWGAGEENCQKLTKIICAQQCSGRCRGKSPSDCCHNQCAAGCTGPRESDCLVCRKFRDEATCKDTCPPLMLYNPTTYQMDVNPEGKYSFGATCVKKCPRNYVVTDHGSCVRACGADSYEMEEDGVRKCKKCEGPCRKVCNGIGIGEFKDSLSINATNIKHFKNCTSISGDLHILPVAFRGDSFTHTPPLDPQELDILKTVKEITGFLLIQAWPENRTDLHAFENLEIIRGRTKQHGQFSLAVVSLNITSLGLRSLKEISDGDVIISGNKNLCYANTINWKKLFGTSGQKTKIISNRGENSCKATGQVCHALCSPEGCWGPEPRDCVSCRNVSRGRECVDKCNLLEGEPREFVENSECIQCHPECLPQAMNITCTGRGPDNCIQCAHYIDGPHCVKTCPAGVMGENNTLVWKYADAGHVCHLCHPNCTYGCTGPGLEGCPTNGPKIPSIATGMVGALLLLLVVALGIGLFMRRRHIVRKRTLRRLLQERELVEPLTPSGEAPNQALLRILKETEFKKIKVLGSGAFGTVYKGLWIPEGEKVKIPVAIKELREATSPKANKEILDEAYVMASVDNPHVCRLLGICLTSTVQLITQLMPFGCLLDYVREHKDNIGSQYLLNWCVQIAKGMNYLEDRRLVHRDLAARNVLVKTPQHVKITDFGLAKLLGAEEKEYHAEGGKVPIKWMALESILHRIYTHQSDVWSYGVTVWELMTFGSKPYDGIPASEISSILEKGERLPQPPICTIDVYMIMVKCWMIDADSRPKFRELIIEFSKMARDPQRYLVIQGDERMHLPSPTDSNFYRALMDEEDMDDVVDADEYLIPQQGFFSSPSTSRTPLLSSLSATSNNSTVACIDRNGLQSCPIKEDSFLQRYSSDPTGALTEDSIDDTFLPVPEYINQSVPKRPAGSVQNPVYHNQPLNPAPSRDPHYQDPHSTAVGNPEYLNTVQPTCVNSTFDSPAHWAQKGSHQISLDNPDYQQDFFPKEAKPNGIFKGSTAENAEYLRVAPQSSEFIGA
Test: not given
The conditions noted are these: earlier study of the group; read-out: IC50 against EGFR; cited from earlier work.
`Nc1cccc(Nc2nnnc3sc4c(c23)CCCC4)c1` [Compound 13b, 3-(5,6,7,8-Tetrahydro-7H-cyclohexa[4:5]thieno[2,3-d][1,2,3]triazin-4ylamino)benzene-1,3-diamine]: the IC50 is about 0.33 nM.
For `Oc1ccc(Nc2nnnc3sc4c(c23)CCC4)cc1` [Compound 8, reference compound], the IC50 is about 38 nM.
